Experimental data reported in PMC11714206, “Massively Parallel Screening of Toll/Interleukin‐1 Receptor (TIR)‐Derived Peptides Reveals Multiple Toll‐Like Receptors (TLRs)‐Targeting Immunomodulatory Peptides” (Advanced Science, 2024).

Target: T1, MAL^TIR (Homo sapiens, UniProt P58753)
T1 construct: MAL (residues 79–221); 6xHis; made in house; host or cells: E. coli BL21 (DE3)
Assay: T‐Surf phage library (P8 and P3) selection against MAL^TIR, four rounds, NGS read counts
Type: binding
Details: for P3_MAL Rank (after) / P3_MAL Rank (before): P3 library; for Population: P3_MAL pool: P3 T-Surf phage library, 4th round of selection against MAL TIR, share of NGS reads; for P8_MAL Rank (after) / P8_MAL Rank (before): P8 library
Method: T‐Surf libraries were screened against the immobilized TIR domains of two major human TLR adaptor proteins, MAL^TIR and MyD88^TIR, allowing cross‐species selection of TIR‐binding motifs with 190 946 TIR‐derived peptides in a single binding assay (Scheme 1). Enriched phage pools from the fourth round of selection were analyzed using NGS after barcoding the peptide‐coding regions of the phage pools.
Phage display screening was performed by coating two wells of a 96‐well plate (Maxisorp, Thermo Fisher Scientific) with 100 µL of 5 µg mL^−1 TIR domains overnight; then, the coated wells were blocked with 200 µL of blocking buffer (0.2% BSA in PBS) and set aside for 1 h at 4 °C with gentle shaking. Next, 100 µL of the phage library was added to the wells and incubated for 1 h at room temperature (RT; 20 – 22 °C) with gentle shaking. The plate was washed four times with PBS containing 0.5% Tween‐20; the bound phages were eluted by adding 100 µL of 100 mM HCl to each well. The elute was neutralized with 10 µL of 1.0 M Tris‐HCl (pH 11.0). E. coli TG1 cells were grown to the log phase (A600 = ≈0.6), and 1 mL of the culture was incubated with 100 µL of the eluted phages for 30 min at 37 °C, with shaking at 200 rpm. Next, 1 µL of M13KO7 helper phages was added, followed by incubation for 45 min at 37 °C, with shaking. Subsequently, the cells were transferred to 25 mL of 2× yeast extract tryptone/carbenicillin/kanamycin medium and incubated overnight at 37 °C with shaking at 200 rpm. The amplified phages were precipitated with 20% PEG‐8000/2.5 M NaCl to be used for the next round of selection.
The naïve T‐Surf libraries in P8 and P3 and the enriched phage pools after four rounds were barcoded for NGS as previously described.^[ [59] ^] Briefly, 5 µL of the phage pool was used as a template for 20 cycles of a 50 µL PCR reaction using […] each of forward and reverse barcoded primers and PrimeSTAR Max DNA Polymerase. The PCR products were purified using Expin Gel SV (GeneAll). The NGS samples were quantified using qPCR, following the qPCR Quantification Protocol Guide (KAPA Library Quantification kits for Illumina Sequencing Platform), and qualified using the TapeStation High Sensitivity D1000 ScreenTape (Agilent Technologies). The indexed libraries were further sequenced by Macrogen (Seoul, Republic of Korea) using the NovaSeq platform (Illumina) with 100 bp paired‐end reads. The reads were demultiplexed by barcodes and filtered for an average Phred quality score of at least 30, followed by trimming the flanking consensus sequences using Cutadapt (version 2.3). Peptide sequence populations were analyzed according to the read counts.

[1] = selection against MAL, rank after grouping
[2] = selection against MAL, rank before grouping
[3] = P3_MAL: rank by count after grouping
[4] = P3_MAL: rank by count before grouping
[5] = 4R selection against MAL, rank after grouping
[6] = 4R selection against MAL, rank before grouping
[7] = selection against MAL, rank by count after grouping
[8] = selection against MAL, rank by count before grouping
[9] = selection against MAL TIR, rank by count after grouping
[10] = selection against MAL TIR, rank by count before grouping
[11] = P8_MAL: rank by count after grouping
[12] = P8_MAL: rank by count before grouping

T1 sequence (P58753 79-221): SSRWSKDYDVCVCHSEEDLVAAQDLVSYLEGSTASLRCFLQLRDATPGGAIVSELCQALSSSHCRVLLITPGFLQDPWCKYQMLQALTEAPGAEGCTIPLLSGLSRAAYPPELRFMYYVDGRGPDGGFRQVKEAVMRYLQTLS

Sequence: DHHLDLPLAKRLNRKFW
- P3_MAL Rank (after) [1]: 492
- P3_MAL Rank (before) [2]: 1922

Sequence: DHHLNPPPGKAIKPEMLG
- Rank (after) [3]: 442
- Rank (before) [4]: 1951

Sequence: DIQSSRLKDDADLVGQ
- P3_MAL Rank (after) [5]: 655
- P3_MAL Rank (before) [6]: 1960

Sequence: DLFLSKLSQHILKREK
- Population: 0.00376%

Sequence: DLFLSKLSQHLLKREK
- Rank (after) [3]: 455
- Rank (before) [4]: 1861

Sequence: DLLNGFIALKSTVIEN
- P8_MAL Rank (after) [7]: 717
- P8_MAL Rank (before) [8]: 1982

Sequence: DPKLNTGESIAPELLR
- P8_MAL Rank (after) [1]: 493
- P8_MAL Rank (before) [2]: 1991

Sequence: DPQDLEWFYERLFSQM
- P8_MAL Rank (after) [9]: 234
- P8_MAL Rank (before) [10]: 876

Sequence: DPQDLQWFYERLVSLI
- Rank (after) [11]: 447
- Rank (before) [12]: 1990

Sequence: DQCRNALTAAANLSGW
- P3_MAL Rank (after) [9]: 201
- P3_MAL Rank (before) [10]: 1953

Sequence: DQWRNALTAAANLSGW
- Population: 0.00526%

Sequence: DSHSSRFKEDAELGGQ
- P3_MAL Rank (after) [7]: 687
- P3_MAL Rank (before) [8]: 1963

Sequence: DSKLKKGESIAPALLR
- P8_MAL Rank (after) [9]: 215
- P8_MAL Rank (before) [10]: 1986

Sequence: DSLFWDRLLYSLHVTE
- Rank (after) [11]: 157
- Rank (before) [12]: 877

Sequence: DTALTNSGFHIFRDNE
- P3_MAL Rank (after) [7]: 689
- P3_MAL Rank (before) [8]: 1984

Sequence: DTILKKGEGIAPELLR
- P8_MAL Rank (after) [5]: 659
- P8_MAL Rank (before) [6]: 1999

Sequence: DTILKKGESIAPELLG
- P8_MAL Rank (after) [1]: 548
- P8_MAL Rank (before) [2]: 2000

Sequence: DTKLKKCESIAPELLL
- P8_MAL Rank (after) [9]: 204
- P8_MAL Rank (before) [10]: 2014

Sequence: DTRYTFIAHLSHALNL
- P8_MAL Rank (after) [5]: 651
- P8_MAL Rank (before) [6]: 2040

Sequence: DWCLSKLSQHTLKREK
- Rank (after) [3]: 481
- Rank (before) [4]: 1908

Sequence: DWFLSHLRHHLQAKDH
- Rank (after) [3]: 183
- Rank (before) [4]: 779

Sequence: DWFLSKLNQHLLKREK
- Rank (after) [3]: 424
- Rank (before) [4]: 1898

Sequence: DWFLSKLSQHILKKG
- Rank (after) [3]: 393
- Rank (before) [4]: 1892

Sequence: DWFLSKLSQHILRHEK
- P3_MAL Rank (after) [7]: 722
- P3_MAL Rank (before) [8]: 1886

Sequence: DWFLSKLSQHLLKRAK
- P3_MAL Rank (after) [7]: 682
- P3_MAL Rank (before) [8]: 1882

Sequence: DWFLSKLSQHSLKLEK
- P3_MAL Rank (after) [7]: 718
- P3_MAL Rank (before) [8]: 1894

Sequence: DWFREQLRPALKERLP
- Rank (after) [3]: 125
- Rank (before) [4]: 787

Sequence: DWFVSKLSQQILQREK
- P3_MAL Rank (after) [7]: 729
- P3_MAL Rank (before) [8]: 1862

Sequence: DWIREQLRPALKKRLP
- P3_MAL Rank (after) [1]: 520
- P3_MAL Rank (before) [2]: 1989

Sequence: DWSLSKLSQHFLKREK
- P3_MAL Rank (after) [1]: 485
- P3_MAL Rank (before) [2]: 1909

Sequence: EFVLTFVINLTPRTSF
- P8_MAL Rank (after) [1]: 576
- P8_MAL Rank (before) [2]: 2041

Sequence: EKIVEWVWEKAHNRFK
- P3_MAL Rank (after) [7]: 770
- P3_MAL Rank (before) [8]: 2080

Sequence: EKIVEWVWGKVHRTFK
- P8_MAL Rank (after) [9]: 207
- P8_MAL Rank (before) [10]: 896

Sequence: ELDFSHFWLFDGEAGGEP
- P8_MAL Rank (after) [1]: 569
- P8_MAL Rank (before) [2]: 2048

Sequence: ELFLDQVLAVLVKPTM
- P8_MAL Rank (after) [1]: 530
- P8_MAL Rank (before) [2]: 2042

Sequence: ELLLSVFMTLSAPRTV
- P8_MAL Rank (after) [1]: 577
- P8_MAL Rank (before) [2]: 2043

Sequence: ERILNQLRRSSQSIAK
- Rank (after) [3]: 421
- Rank (before) [4]: 2078

Sequence: ERLFSEPLNVNKDLLG
- Rank (after) [3]: 434
- Rank (before) [4]: 2032

Sequence: ESGKLASGAGKSGQT
- P3_MAL Rank (after) [5]: 598
- P3_MAL Rank (before) [6]: 2037

Sequence: ESIIYQLHRSSERVAN
- P3_MAL Rank (after) [1]: 501
- P3_MAL Rank (before) [2]: 2075

Sequence: ESILDQLRRRSQSIAN
- P3_MAL Rank (after) [5]: 591
- P3_MAL Rank (before) [6]: 2042

Sequence: ESILNHPRRSSQILSN
- P3_MAL Rank (after) [1]: 516
- P3_MAL Rank (before) [2]: 2047

Sequence: ESILNQLRHHLQAKDH
- Rank (after) [3]: 170
- Rank (before) [4]: 544

Sequence: ESILNQLRRSSESIAK
- P3_MAL Rank (after) [9]: 211
- P3_MAL Rank (before) [10]: 2053

Sequence: ESILNQLRRSSHSISN
- P3_MAL Rank (after) [1]: 542
- P3_MAL Rank (before) [2]: 2054

Sequence: ESILNQLRRSSQSFAT
- P3_MAL Rank (after) [9]: 260
- P3_MAL Rank (before) [10]: 2056

Sequence: ESILNQLRRSSQSMR
- P3_MAL Rank (after) [9]: 202
- P3_MAL Rank (before) [10]: 2061

Sequence: ESILNQRRPSSQSIAN
- P3_MAL Rank (after) [5]: 595
- P3_MAL Rank (before) [6]: 2071

Sequence: ESILTKLRRSSQSIAN
- P3_MAL Rank (after) [5]: 597
- P3_MAL Rank (before) [6]: 2045

Sequence: EWILDTEARIWGWRQA
- Rank (after) [3]: 452
- Rank (before) [4]: 1992

Sequence: EWIREQLRRSSQSIAN
- P3_MAL Rank (after) [9]: 222
- P3_MAL Rank (before) [10]: 801

Sequence: EWIREQMSPALKERLP
- P3_MAL Rank (after) [5]: 617
- P3_MAL Rank (before) [6]: 2023

Sequence: EYRNESKFIWDIINAI
- Rank (after) [11]: 386
- Rank (before) [12]: 2047

Sequence: FAFTGHLHRYLVQRGV
- Population: 0.00338%

Sequence: FAFTGQMLRYMVRSGL
- P3_MAL Rank (after) [7]: 717
- P3_MAL Rank (before) [8]: 1132

Sequence: FDRFHIYFLHFLLFSR
- P8_MAL Rank (after) [7]: 680
- P8_MAL Rank (before) [8]: 1087

Sequence: FISHLYAALQRKHVET
- Rank (after) [3]: 96
- Rank (before) [4]: 96

Sequence: FLNFRAWMCVTIFWA
- P3_MAL Rank (after) [7]: 677
- P3_MAL Rank (before) [8]: 1176

Sequence: FLNFRGLDVRNYFLA
- Rank (after) [3]: 408
- Rank (before) [4]: 1158

Sequence: FLNFRGLDVRNYFLGH
- P8_MAL Rank (after) [1]: 560
- P8_MAL Rank (before) [2]: 1088

Sequence: FLNFRGLGGRNYFLGH
- P3_MAL Rank (after) [5]: 628
- P3_MAL Rank (before) [6]: 1147

Sequence: FLNFRGLVVRNYFLVH
- P3_MAL Rank (after) [7]: 720
- P3_MAL Rank (before) [8]: 1146

Sequence: FLNFRGLYVRNYFLGP
- Rank (after) [3]: 462
- Rank (before) [4]: 1145

Sequence: FLNWPRNPKEHRHFWH
- P3_MAL Rank (after) [9]: 241
- P3_MAL Rank (before) [10]: 1181

Sequence: FLSHLHRYLVQRGV
- P3_MAL Rank (after) [5]: 601
- P3_MAL Rank (before) [6]: 1134

Sequence: FMSHLRHHLQAKDH
- Rank (after) [3]: 166
- Rank (before) [4]: 709
